This is an account of results in ChEMBL document CHEMBL1201862, “PubChem BioAssay data set” (2004).

SMILES strings stand for the structures.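 Grown in 96-well plates, cells were treated for 48 hours with each compound at five concentrations. Insufficient inhibition: endpoint recorded as highest concentration tested. GI50 is the concentration that inhibits growth by half.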 The source made the active and inactive calls. Cut-off read from the data, not from the text of the source: active = GI50 up to about 1.1 µM and inactive = higher.

Some test systems named below: COLO 205; ACHN; SK-MEL-5; RXF 393; OVCAR-3; HL-60; HCT-15; K562; UACC-62; NCI-H460; IGROV-1; SNB-75; U-251; SK-OV-3; NCI-H226; NCI-H522; UO-31; SK-MEL-28; HCC 2998; HCT-116.
Assay in all cases: NCI-60 cell line screen, 48 h

As to `CCCS(=O)(=O)O`, the GI50 with COLO 205, with ACHN, in the test on SK-MEL-5, in the test with RXF 393, in the test with OVCAR-3 and in the test with HL-60 was > 100 µM (inactive) each time. In addition, the GI50 in the test on HCT-15 is over 100 µM; with K562, > 100 µM (inactive); with UACC-62 it was > 100 µM (inactive); in the test with NCI-H460, > 100 µM (inactive); with IGROV-1, > 100 µM (inactive); in the test on SNB-75 it was > 100 µM (inactive). Moreover, the GI50 in the test on U-251, in the test on SK-OV-3, with NCI-H226, in the test with NCI-H522, with UO-31 and in the test with SK-MEL-28 was > 100 µM (inactive) throughout.

As to `CCC1(OC(=O)CN)C(=O)OCc2c1cc1n(c2=O)Cc2cc3ccccc3nc2-1` (stereo not drawn), the GI50 in the test on COLO 205 is 0.0491 µM (active); in the test with ACHN, 0.01 µM (active); in the test on RXF 393, 0.0378 µM (active); in the test with OVCAR-3 it was 0.0944 µM (active); in the test on HL-60 it was 0.00764 µM (active); with HCT-15 it was 0.149 µM. Also, the GI50 in the test with K562 is 0.0334 µM (active); in the test with UACC-62 it was 0.01 µM (active); with NCI-H460, 0.01 µM (active); in the test with IGROV-1 it was 0.0411 µM (active); in the test on SNB-75, 0.0213 µM (active); with HCC 2998 it was 0.0664 µM (active). The GI50 with U-251 is 0.01 µM (active); in the test on SK-OV-3 it was 0.0297 µM (active); in the test with NCI-H226 it was 0.0134 µM (active); with NCI-H522, 0.0188 µM (active); in the test with UO-31, 0.0114 µM (active); in the test with SK-MEL-28, 0.101 µM (active).

As to `COc1ccc(C2N(NC(=O)c3ccncc3)C(=O)CS2(=O)=O)cc1F` (stereo not drawn), the GI50 with HCT-116, in the test on COLO 205, with ACHN, in the test with SK-MEL-5, in the test with RXF 393 and in the test on HL-60 was > 100 µM (inactive) each time. Also, the GI50 in the test on HCT-15 is over 100 µM; in the test with NCI-H460 it was > 100 µM (inactive); in the test with SNB-75 it was 37.6 µM (inactive); in the test on HCC 2998, > 100 µM (inactive); in the test on U-251, > 100 µM (inactive); in the test with SK-OV-3, > 100 µM (inactive). For the same compound, the GI50 with NCI-H226 is > 100 µM (inactive); in the test on NCI-H522, 92.3 µM (inactive); in the test with SK-MEL-28 it was > 100 µM (inactive).

In the case of `NC1CCCCC1`, the GI50 was 193 µM (inactive) in the test with HCT-116; > 56.2 µM (inactive) in the test on COLO 205; 283 µM (inactive) with SK-MEL-5; 347 µM (inactive) in the test on RXF 393; 190 µM (inactive) with OVCAR-3; 135 µM (inactive) in the test with HL-60. Also, the GI50 in the test with HCT-15 was 470 µM; in the test with K562 it was 138 µM (inactive); with UACC-62, 255 µM (inactive); in the test on NCI-H460 it was 216 µM (inactive); with IGROV-1 it was 317 µM (inactive); with SNB-75, 264 µM (inactive). Also, the GI50 in the test on HCC 2998 was 310 µM (inactive); in the test with U-251, 313 µM (inactive); in the test on NCI-H522 it was 344 µM (inactive); with SK-MEL-28 it was 318 µM (inactive).

As for `COc1cc([C@@H]2c3cc4c(cc3[C@@H](c3c(O)cc(O)c5c3O[C@H](c3ccc(O)c(O)c3)[C@@H](O)C5)[C@H]3COC(=O)[C@H]23)OCO4)cc(OC)c1O`, the GI50 in the test on HCT-116 is 72.8 µM (inactive); with COLO 205, > 100 µM (inactive); with ACHN it was > 100 µM (inactive); in the test with SK-MEL-5, 46.7 µM (inactive); with RXF 393 it was > 100 µM (inactive); with OVCAR-3 it was > 100 µM (inactive). Besides, the GI50 with HL-60 was 27 µM (inactive); with HCT-15 it was over 100 µM; in the test on K562, 31.7 µM (inactive); with UACC-62, > 100 µM (inactive); with NCI-H460 it was > 100 µM (inactive); in the test on IGROV-1, > 100 µM (inactive). Also, the GI50 in the test with HCC 2998 was > 100 µM (inactive); in the test with U-251, > 100 µM (inactive); with SK-OV-3 it was > 100 µM (inactive); in the test on NCI-H522, 43.6 µM (inactive); with SK-MEL-28 it was 89.1 µM (inactive).

Take `Cc1ccc(NC(=S)NNC(=O)c2cc(-c3ccccc3)nc3ccccc23)cc1C`: the GI50 with HCT-116 is 18.6 µM (inactive); in the test on COLO 205 it was 16.6 µM (inactive); in the test on ACHN it was 25.2 µM (inactive); in the test with SK-MEL-5, 18 µM (inactive); in the test with RXF 393 it was 27 µM (inactive); in the test with HCT-15 it was 20.4 µM. The GI50 was 33 µM (inactive) in the test on K562; 16.9 µM (inactive) in the test on UACC-62; 19.5 µM (inactive) with NCI-H460; 20 µM (inactive) in the test on IGROV-1; 16.3 µM (inactive) with SNB-75; 18.8 µM (inactive) in the test with HCC 2998. In addition, the GI50 in the test on U-251 is 19.5 µM (inactive); in the test on SK-OV-3, 16.6 µM (inactive); with NCI-H226, 34.8 µM (inactive); in the test on NCI-H522 it was 22.5 µM (inactive); in the test with UO-31, 17.9 µM (inactive); in the test with SK-MEL-28, 25.8 µM (inactive).

Turning to `O=C(N/N=C/C=C/c1ccccc1)[C@H](O)[C@@H](O)C(=O)N/N=C/C=C/c1ccccc1`, the GI50 in the test on HCT-116, with COLO 205, in the test with ACHN, in the test with SK-MEL-5, with RXF 393 and in the test on HL-60 was > 100 µM (inactive) throughout. Moreover, the GI50 in the test with HCT-15 was over 100 µM; in the test with K562, > 100 µM (inactive); in the test with UACC-62, > 100 µM (inactive); in the test on NCI-H460, > 100 µM (inactive); in the test with IGROV-1, > 100 µM (inactive); in the test on HCC 2998, > 100 µM (inactive). For the same compound, the GI50 is > 100 µM (inactive) in the test with U-251; > 10 µM (inactive) in the test with SK-OV-3; > 100 µM (inactive) with NCI-H522; > 100 µM (inactive) in the test on UO-31; > 100 µM (inactive) with SK-MEL-28.

Turning to `O=C1CN2C(Cl)(Cl)C2(c2ccccc2)c2cc(Cl)ccc2N1CC1CC1` (stereo not drawn), the GI50 in the test on HCT-116 was 18.3 µM (inactive); in the test with COLO 205, 19.9 µM (inactive); in the test on ACHN, 23.8 µM (inactive); in the test with SK-MEL-5, 20.2 µM (inactive); in the test on RXF 393, 18.7 µM (inactive); in the test on OVCAR-3, 19.6 µM (inactive). The GI50 was 19.3 µM with HCT-15; 31.5 µM (inactive) with K562; 16.3 µM (inactive) in the test with NCI-H460; 25.2 µM (inactive) in the test with SNB-75; 18.7 µM (inactive) in the test with HCC 2998; 19.1 µM (inactive) in the test on U-251. In addition, the GI50 was 21.3 µM (inactive) in the test on NCI-H226, 17.2 µM (inactive) with NCI-H522, 26 µM (inactive) in the test on UO-31 and 17.3 µM (inactive) in the test with SK-MEL-28.

As to `O=C1C=CC=C/C1=C1/SC(c2ccccc2)=C(O)N1c1ccccc1`, the GI50 in the test with HCT-116, in the test with COLO 205, with ACHN, in the test with SK-MEL-5, in the test with RXF 393 and in the test on OVCAR-3 was > 100 µM (inactive) each time. For the same compound, the GI50 in the test with HCT-15 was over 100 µM; with UACC-62 it was > 100 µM (inactive); in the test with IGROV-1, > 100 µM (inactive); in the test on SNB-75 it was > 100 µM (inactive); with HCC 2998, > 100 µM (inactive); with U-251, > 100 µM (inactive). Moreover, the GI50 in the test with SK-OV-3, in the test on NCI-H226, in the test on NCI-H522, in the test on UO-31 and with SK-MEL-28 was > 100 µM (inactive) in each case.

On to `C/C(=C1\N=C(c2ccccc2)OC1=O)c1ccccc1`, for which the GI50 in the test on HCT-116, in the test on COLO 205, with ACHN, with SK-MEL-5, in the test on OVCAR-3 and in the test on HL-60 was > 100 µM (inactive) each time. Further, the GI50 in the test on HCT-15 is over 100 µM; with K562, > 100 µM (inactive); in the test with UACC-62 it was > 100 µM (inactive); in the test on NCI-H460, > 100 µM (inactive); in the test on IGROV-1, > 100 µM (inactive); with SNB-75, 0.611 µM (active). Also, the GI50 in the test on HCC 2998, in the test on U-251, with SK-OV-3, in the test on NCI-H226, in the test with NCI-H522 and in the test with UO-31 was > 100 µM (inactive) in each case. Moreover, in the test on SK-MEL-28, the GI50 was > 100 µM (inactive).

Turning to `CCCCC1(N=[N+]=[N-])C(=O)c2cccc3c2N(CCC3)C1=O` (stereo not drawn), the GI50 with HCT-116 was > 100 µM (inactive); in the test on COLO 205, > 100 µM (inactive); in the test with ACHN it was > 100 µM (inactive); in the test on SK-MEL-5 it was > 100 µM (inactive); in the test with RXF 393 it was > 100 µM (inactive); in the test with OVCAR-3 it was 44.6 µM (inactive). For the same compound, the GI50 in the test on HCT-15 was over 100 µM; in the test with K562, > 100 µM (inactive); in the test with UACC-62, 69.2 µM (inactive); in the test on NCI-H460 it was > 100 µM (inactive); with IGROV-1, > 100 µM (inactive); in the test on SNB-75, > 100 µM (inactive). The GI50 in the test with HCC 2998, in the test with U-251, with SK-OV-3, in the test on NCI-H226, in the test on NCI-H522 and in the test with SK-MEL-28 was > 100 µM (inactive) each time.

Turning to `CCN(CC)C(=O)c1cc(OC(C)C)ccc1-c1c(C)cc(OC(C)C)c(OC)c1OC`, the GI50 in the test with HCT-116 is 38.2 µM (inactive); in the test on COLO 205, 63.7 µM (inactive); in the test on ACHN, 57.8 µM (inactive); in the test on SK-MEL-5 it was 35.6 µM (inactive); in the test with RXF 393 it was 43 µM (inactive); with OVCAR-3, 71 µM (inactive). The GI50 with HL-60 is 45.9 µM (inactive); with HCT-15, 46.9 µM; in the test on K562, 44.2 µM (inactive); in the test with UACC-62 it was 51.8 µM (inactive); with NCI-H460 it was 36.1 µM (inactive); with IGROV-1, > 100 µM (inactive). The GI50 in the test on HCC 2998 is 46.3 µM (inactive); with U-251 it was 63 µM (inactive); in the test with SK-OV-3 it was > 100 µM (inactive); in the test with NCI-H226, 98.2 µM (inactive); in the test with NCI-H522, 40 µM (inactive); with UO-31, 86.3 µM (inactive). Besides, in the test on SK-MEL-28, the GI50 is > 100 µM (inactive).
